Results taken from patent US20040106658A1, “Heterocyclic fluoroalkenyl thioethers and the use thereof as pesticides(III)” (priority 2000, published 2004).
Where two headings read alike, the source gives them in different places.

Legend:
[1] = logP by HPLC (EEC Directive 79/831 Annex V.A8, gradient method); assay type: physicochemical; settings: for chromatographic logP: pH 2.3; for logP (pH 2): HPLC, acetonitrile/0.1% aqueous phosphoric acid
[2] = system: Meloidogyne incognita; assay: Meloidogyne test (gall formation on lettuce roots); assay type: in vivo; settings: 20 ppm active compound, after 14 days
Description: To produce a suitable preparation of active compound, 1 part by weight of active compound is mixed with the stated amounts of solvent and emulsifier, and the concentrate is diluted with water to the desired concentration.
Containers are filled with sand, solution of active compound, Meloidogyne incognita egg/larvae suspension and lettuce seeds. The lettuce seeds germinate and the plants develop. On the roots, galls are formed.
After the desired period of time, the nematicidal action is determined in % using gall formation as a measure. 100% means that no galls were found; 0% means that the number of galls on the treated plants corresponds to that of the untreated control.

[3] = system: Boophilus microplus (SP-resistant Parkhurst strain); assay: Test with Boophilus microplus resistant (SP-resistant Parkhurst strain), injection; assay type: in vivo; settings: injected, checked after 7 days; for activity (no oviposition of fertile eggs): 0.16 μg active compound per animal; for kill (activity: no oviposition of fertile eggs): 0.8 μg active compound per animal
Description: Test With Boophilus Microplus Resistant (SP-Resistant Parkhurst Strain)
20 mg of active compound are dissolved in 1 ml of dimethyl sulphoxide, more dilute concentrations are prepared by dilution in the same solvent.
The test is carried out in 5 replications. 1 μl of the solutions is injected into the abdomen, and the animals are transferred into dishes and kept in a climatized room. After 7 days, the activity is checked by examination for oviposition of fertile eggs. Eggs whose fertility is not visible from the outside are stored in glass tubes in a controlled-environment cabinet until the larvae have hatched. An activity of 100% means that no tick has produced any fertile eggs.

[4] = system: peach aphid (Myzus persicae); assay: Myzus test (cabbage leaf dip); assay type: in vivo; settings: active compound concentration 0.1%, after 6 days
Description: (§1) To produce a suitable preparation of active compound, 1 part by weight of active compound is mixed with the stated amounts of solvent and emulsifier, and the concentrate is diluted with emulsifier-containing water to the desired concentration.
Cabbage leaves (Brassica oleracea) which are heavily infested by the peach aphid (Myzus persicae) are treated by being dipped into the preparation of active compound of the desired concentration.
After the desired period of time, the kill in % is determined. 100% means that all aphids have been killed; 0% means that none of the aphids have been killed.

[5] = system: larvae of the mustard beetle (Phaedon cochleariae); assay: Phaedon larvae test (cabbage leaf dip); assay type: in vivo; settings: active compound concentration 0.1%, after 7 days
Description: as §1
After the desired period of time, the kill in % is determined. 100% means that all beetle larvae have been killed; 0% means that none of the beetle larvae have been killed.

[6] = system: greenhouse red spider mite (Tetranychus urticae); assay: Tetranychus test (OP-resistant/dip treatment); assay type: in vivo; settings: active compound concentration 0.1%, after 7 days
Description: Tetranychus Test (OP-Resistant/Dip Treatment)
as §1
Bean plants (Phaseolus vulgaris) which are heavily infested by all stages of the greenhouse red spider mite (Tetranychus urticae) are dipped into a preparation of active compound of the desired concentration.
After the desired period of time, the effect in % is determined. 100% means that all spider mites have been killed; 0% means that none of the spider mites have been killed.

[7] = system: Ctenocephalides felis, strain "Georgi"; assay: Test with cat fleas/oral uptake; assay type: in vivo; settings: 100 ppm in citrated cattle blood, after 28 h
Description: Test With Cat Fleas/Oral Uptake
To produce a suitable formulation, a suitable solution of active compound is prepared from 20 mg of active compound and 1 ml of DMSO. 15 μl of this formulation are added to 3 ml of citrated cattle blood and stirred.
10 unfed adult fleas (Ctenocephalides felis, strain “Georgi”) are placed into a chamber (Ø3.2 cm) whose top and bottom are closed with gauze. A metal cylinder whose underside is covered with parafilm is placed onto the chamber. The cylinder contains 3 ml of blood/active compound formulation which can be taken up by the fleas through the parafilm membrane. Whereas the blood is warmed to 37° C., the temperature in the area of the flea chambers is adjusted to 25° C. Controls are mixed with the same volume of DMSO, without addition of a compound. The determinations are carried out in triplicate.
After 28 h, the mortality in % (=dead fleas) is determined.
Compounds which effect an at least 25% kill of the fleas within 28 h are judged to be effective.

[8] = system: Lucilia cuprina larvae; assay: Blowfly larvae test (development-inhibitory action); assay type: in vivo; settings: 100 ppm active compound
Description: Blowfly Larvae Test (Development-Inhibitory Action)
20 mg of active compound are dissolved in 1 ml of dimethyl sulphoxide, more dilute concentrations are prepared by dilution with distilled water.
About 20 Lucilia cuprina larvae are introduced into a test tube which contains about 1 cm^3 of horse meat and 0.5 ml of the preparation of active compound to be tested. After 24 hours and 48 hours, the efficacy of the preparation of active compound is determined. The test tubes are transferred into a beaker whose bottom is covered with sand. After a further 2 days, the test tubes are removed and the pupae are counted.
The efficacy of the preparation of active compound is assessed by the number of flies that have hatched after 1.5 times the period of development of an untreated control. 100% means that no flies have hatched; 0% means that all flies have hatched normally.

Row | Compound | nematicidal action (activity, gall formation as a measure) [2] | activity (no oviposition of fertile eggs) [3] | logP (pH 2) [1] | further results
1 | FC(F)=C(F)CCCCSc1nc(-c2ccccc2)cs1 [Example 1, 4-phenyl-2-(6,6,5-trifluorohex-5-enylthio)-1,3-thiazole] | 100% | 100% |  | chromatographic logP ([1]; read-out: logP (pH 2.3)): 5.21
2 | FC(F)=CCCCCSc1nc(Cl)c(Cl)s1 [Example 6] | 100% |  | 5.53 | kill [4]: 95%; kill [5]: 100%; kill [6]: 100%
3 | FC(F)=C(F)CCCCSc1nc(Cl)c(C(F)(F)F)s1 [Example 10] |  |  | 5.40 | 
4 | FC(F)=C(F)CCCCSc1nc(Cl)c(Cl)s1 [Example 5] | 98% |  | 5.33 | kill [5]: 100%; kill (activity: no oviposition of fertile eggs) [3]: 100%
5 | O=S(=O)(CCCCC(F)=C(F)F)c1nc(-c2ccccc2)cs1 [Example 3, 4-phenyl-2-(6,6,5-trifluorohex-5-enylsulphonyl)-1,3-thiazole] |  | 100% |  | chromatographic logP [1]: 3.67
6 | [O-][S+](CCCCC(F)=C(F)F)c1nc(-c2ccccc2)cs1 (stereo not shown) [Example 2, 4-phenyl-2-(6,6,5-trifluorohex-5-enylsulphinyl)-1,3-thiazole] |  | 100% |  | chromatographic logP ([1]; read-out: logP (pH 2.3)): 3.47
7 | Cc1nc(SCCCCC(F)=C(F)F)sc1C [Example 11] |  |  | 4.20 | 
8 | Cc1csc(SCCCCC(F)=C(F)F)n1 [Example 9] |  |  | 3.85 | 
9 | FC(F)=C(F)CCCCSc1nc(-c2ccccc2)c(-c2ccccc2)o1 [Example 7] | 100% |  | 5.96 | 
10 | FC(F)=CCCCCSc1nc(Cl)c(C(F)(F)F)s1 [Example 12] |  |  | 5.62 | 
11 | FC(F)=CCCCCSc1nc(-c2ccccc2)cs1 [Example 4] | 100% | 100% | 5.38 | kill [6]: 98%; kill (activity: no oviposition of fertile eggs) [3]: 100%; kill (mortality) [7]: 100%
12 | FC(F)=CCCCCSc1nc(-c2ccccc2)c(-c2ccccc2)o1 [Example 8] | 100% |  | 6.14 | kill [5]: 100%; kill [6]: 98%; kill (activity: no oviposition of fertile eggs) [3]: 100%; kill (efficacy: flies not hatched) [8]: 100%
